Results as given in patent publication US9034868B2 (priority 2008, dated 2015).
“Also recorded” adds a separate entry of the source.

Columns and labels:
StxB [1] = assay type: cell-based; details: 20 μM, 30 min, 37° C.
StxB [2] = assay type: cell-based, human
CI-MPR = assay type: cell-based, human
transferrin (Tf) = assay type: cell-based; details: 20 μM, 30 min, 37° C.
StxB [3] = assay type: cell-based, human; remark: listed apart in the source
StxB [4] = assay type: cell-based; details: 20 μM, 45 min at 37° C.
[5] = tested on: vesicular stomatitis virus G protein (VSVG); assay type: cell-based, human
StxB [6] = assay type: cell-based
CTxB = assay type: cell-based; details: 20 μM
125I-EGF = assay type: cell-based, human
TGN46 = assay type: cell-based, human

In the case of `CCC(=O)N1CC(=O)Nc2ccc(Br)cc2C1c1ccccc1` (stereo not drawn) [Compound 193, 7-bromo-5-phenyl-4-propionyl-4,5-dihydro-1H-benzo[e][1,4]diazepin-2(3H)-one], the apparent side effects (THP1-cells) is reported as “did not cause any apparent side effects”, the “endocytosis of StxB” value (StxB [1]) is reported as “not altered” and the “retrograde transport of StxB to the TGN” value (StxB [2]) is reported as “stark reduction”. For the same molecule, the “steady-state localization of CI-MPR” value (CI-MPR) was “similar”, the “endocytosis of transferrin (Tf)” value (transferrin (Tf)) was “not altered” and the “inhibition of Stx cytotoxicity” value (Stx1 and Stx2) was 100 fold. The “amount of bound StxB on cells” value (StxB [3]) was “not reduced”, the “cellular localisation of STxB” value (StxB [4]) was “accumulation” and the “anterograde transport of GFP-VSVGts045” value [5] was “not significantly reduced”. The “reduction of retrograde transport of STxB to the TGN” value (StxB [6]) was 90%, the “reduction of transport of StxB to the TGN, 4 h after internalization” value (StxB [6]) was 50% and the “cellular localisation of CtxB” value (CTxB) was “accumulation”. For the same molecule, the “effect on protein biosynthesis” value (HeLa-cells) was “only minor”, the “effect on lysosomal degradation of 125I-EGF” value (125I-EGF) was “no effect” and the “steady-state localization and transport of TGN46” value (TGN46) was “similar; also recorded: not been observed a distinct inhibition; also recorded: did not observe a pronounced effect; also recorded: do not impact distinctly”.
